Measured values reported in patent US10414811B2, “Protease-resistant lipidated GLP-1 analogs” (MEDIMMUNE LIMITED, priority 2015, dated 2019).
Where two headings read alike, the source gives them in different places. Numbered stars: 1 amine (or outer) side, 2 acyl side, 3 side chain; on linkers, the order of the positions; unused ones are H or OH. Square brackets hold non-standard residues; d marks the D form. Side chains are listed from the residue outwards. Peptide text beside a SMILES is read from it. * marks the point of attachment. C18 diacid = O=C(O)CCCCCCCCCCCCCCCCC(=O)*; γGlu = O=C(O)[C@H](CCC(=O)[*:2])N[*:1]; Palmitoyl = CCCCCCCCCCCCCCCC(=O)*; αMeF = C[C@](N)(Cc1ccccc1)C(=O)O; αMeK = C[C@](N)(CCCCN)C(=O)O; αMeS = C[C@](N)(CO)C(=O)O; AEEA = NCCOCCOCC(=O)O; Aib = CC(C)(N)C(=O)O

Columns and labels:
Assay type in all cases: cell-based
[1] = target: T1, human glucose-dependent insulinotropic peptide receptor (GIPR) (Homo sapiens, UniProt P48546); test: cAMP assay, human GIPR cells; settings: cAMP assay
T1 construct: expressed in transfected cells
T1 sequence (P48546 22-466): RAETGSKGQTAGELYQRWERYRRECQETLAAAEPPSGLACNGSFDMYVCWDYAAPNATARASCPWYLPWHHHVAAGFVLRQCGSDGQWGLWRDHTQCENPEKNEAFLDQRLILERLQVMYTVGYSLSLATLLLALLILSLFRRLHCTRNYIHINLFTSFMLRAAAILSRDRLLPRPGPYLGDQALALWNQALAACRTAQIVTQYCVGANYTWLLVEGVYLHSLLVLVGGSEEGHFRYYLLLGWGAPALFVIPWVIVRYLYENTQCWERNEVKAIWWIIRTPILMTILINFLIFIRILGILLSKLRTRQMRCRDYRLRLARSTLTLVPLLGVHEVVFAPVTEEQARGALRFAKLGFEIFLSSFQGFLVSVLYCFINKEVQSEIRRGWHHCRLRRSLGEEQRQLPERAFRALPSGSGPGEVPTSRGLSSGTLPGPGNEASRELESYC
Method in brief: (§1)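 Peptide-stimulated cAMP measured by two-step HTRF after a 30 min room-temperature incubation with receptor-expressing cells (hGLP-1R, hGIPR at 1×10^5 cells/ml; hGCGR at 2×10^5 cells/ml). Duplicate dilutions; EC50 from 4-parameter logistic fit of % Delta F.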

[2] = target: T2, human glucagon receptor (GCGR) (Homo sapiens, UniProt P47871); test: cAMP assay, human GCGR cells; settings: cAMP assay
T2 construct: expressed in transfected cells
T2 sequence (P47871 26-477): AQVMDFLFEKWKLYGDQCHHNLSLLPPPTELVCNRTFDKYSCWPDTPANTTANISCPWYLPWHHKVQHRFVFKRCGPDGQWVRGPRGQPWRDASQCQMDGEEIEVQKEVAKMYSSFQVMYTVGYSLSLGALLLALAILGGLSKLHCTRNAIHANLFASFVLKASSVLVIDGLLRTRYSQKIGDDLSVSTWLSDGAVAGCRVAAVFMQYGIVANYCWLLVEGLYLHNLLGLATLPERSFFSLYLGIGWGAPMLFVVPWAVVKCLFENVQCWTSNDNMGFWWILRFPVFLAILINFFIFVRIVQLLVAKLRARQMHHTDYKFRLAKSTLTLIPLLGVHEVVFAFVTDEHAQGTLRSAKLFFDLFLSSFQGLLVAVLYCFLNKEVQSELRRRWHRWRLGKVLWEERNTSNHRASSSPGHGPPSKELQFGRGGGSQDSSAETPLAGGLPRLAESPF
Method in brief: as §1

[3] = target: T3, human GLP-1 receptor (GLP-1R) (Homo sapiens, UniProt P43220); test: cAMP assay, human GLP-1R cells
T3 construct: expressed in transfected cells
T3 sequence (P43220 24-463): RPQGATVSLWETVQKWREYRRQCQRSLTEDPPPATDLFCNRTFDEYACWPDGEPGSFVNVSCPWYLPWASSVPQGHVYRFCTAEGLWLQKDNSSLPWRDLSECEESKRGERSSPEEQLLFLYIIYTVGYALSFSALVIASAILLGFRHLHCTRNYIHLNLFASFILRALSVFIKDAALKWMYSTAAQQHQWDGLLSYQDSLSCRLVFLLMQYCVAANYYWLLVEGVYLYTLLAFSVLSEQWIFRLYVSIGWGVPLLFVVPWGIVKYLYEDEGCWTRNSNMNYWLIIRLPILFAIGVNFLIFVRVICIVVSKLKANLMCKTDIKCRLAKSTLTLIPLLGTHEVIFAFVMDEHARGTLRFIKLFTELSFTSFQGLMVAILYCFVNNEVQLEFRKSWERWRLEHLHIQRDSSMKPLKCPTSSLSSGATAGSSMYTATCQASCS
Method in brief: as §1

[4] = first determination (n1), read-out: Primary assay EC50 GIP-R (n1)
[5] = second determination (n2), read-out: Primary assay EC50 GIP-R (n2)
[6] = first determination (n1), read-out: Primary assay EC50 Gluc-R (n1)
[7] = second determination (n2), read-out: Primary assay EC50 Gluc-R (n2)
[8] = cAMP assay, first determination (n1), read-out: Primary assay EC50 GLP-1R n1
[9] = cAMP assay, second determination (n2), read-out: Primary assay EC50 GLP-1R n2
[10] = mean of n1 and n2, read-out: Mean pM GLP-1R

Row | SMILES | EC50 [1, 4] [nM] | EC50 [1, 5] [nM] | EC50 [2, 6] [nM] | EC50 [2, 7] [nM] | EC50 [3, 8] [pM] | EC50 [3, 9] [pM] | EC50 [3, 10] [pM]
1 | CC[C@H](C)[C@H](NC(=O)[C@](C)(Cc1ccccc1)NC(=O)[C@H](CCC(=O)O)NC(=O)[C@](C)(CCCCN)NC(=O)[C@H](C)NC(=O)[C@H](C)NC(=O)[C@H](CCC(=O)O)NC(=O)CNC(=O)[C@H](CCC(=O)O)NC(=O)[C@H](CC(C)C)NC(=O)[C@](C)(Cc1ccccc1)NC(=O)[C@H](CO)NC(=O)[C@](C)(CO)NC(=O)[C@@H](NC(=O)[C@H](CC(=O)O)NC(=O)[C@H](CO)NC(=O)[C@@H](NC(=O)[C@](C)(Cc1ccccc1)NC(=O)[C@H](CCCCNC(=O)COCCOCCNC(=O)COCCOCCNC(=O)CC[C@H](NC(=O)CCCCCCCCCCCCCCCCC(=O)O)C(=O)O)NC(=O)CNC(=O)[C@H](CCC(=O)O)NC(=O)C(C)(C)NC(=O)[C@@H](N)Cc1c[nH]cn1)[C@@H](C)O)C(C)C)C(=O)N[C@@H](C)C(=O)N[C@@](C)(Cc1ccccc1)C(=O)N[C@H](C(=O)N[C@H](C(=O)N[C@@](C)(CCCCN)C(=O)NCC(=O)NCC(N)=O)C(C)C)C(C)C [compound 124] (H-H[Aib]EGK([AEEA-AEEA-γGlu-C18 diacid])[αMeF]TSDV[αMeS]S[αMeF]LEGEAA[αMeK]E[αMeF]IA[αMeF]VV[αMeK]GG-NH2; N-terminus assumed) | ≥ 25 | ≥ 25.1 | ≥ 25 | ≥ 25.1 | ≥ 25000 | ≥ 25100 | ≥ 25100
2 | CCCCCCCCCCCCCCCC(=O)N[C@@H](CCC(=O)NCCCC[C@H](NC(=O)[C@@H](NC(=O)[C@](C)(Cc1ccccc1)NC(=O)[C@H](CO)NC(=O)CNC(=O)[C@H](CCC(=O)O)NC(=O)C(C)(C)NC(=O)[C@@H](N)Cc1c[nH]cn1)[C@@H](C)O)C(=O)N[C@@H](CC(=O)O)C(=O)N[C@H](C(=O)N[C@@](C)(CO)C(=O)N[C@@H](CO)C(=O)N[C@@](C)(Cc1ccccc1)C(=O)N[C@@H](CC(C)C)C(=O)N[C@@H](CCC(=O)O)C(=O)NCC(=O)N[C@@H](CCC(=O)O)C(=O)N[C@@H](C)C(=O)N[C@@H](C)C(=O)N[C@@](C)(CCCCN)C(=O)N[C@@H](CCC(=O)O)C(=O)N[C@@](C)(Cc1ccccc1)C(=O)N[C@H](C(=O)N[C@@H](C)C(=O)N[C@@](C)(Cc1ccccc1)C(=O)N[C@H](C(=O)N[C@H](C(=O)N[C@@](C)(CCCCN)C(=O)NCC(=O)NCC(N)=O)C(C)C)C(C)C)[C@@H](C)CC)C(C)C)C(=O)O [compound 92] (H-H[Aib]EGS[αMeF]TK([γGlu-Palmitoyl])DV[αMeS]S[αMeF]LEGEAA[αMeK]E[αMeF]IA[αMeF]VV[αMeK]GG-NH2; N-terminus assumed) | ≥ 28 | ≥ 28 | ≥ 28 | ≥ 28 | 450 | 390 | 423
3 | CC[C@H](C)[C@H](NC(=O)[C@](C)(Cc1ccccc1)NC(=O)[C@H](CCC(=O)O)NC(=O)[C@](C)(CCCCN)NC(=O)[C@H](C)NC(=O)[C@H](C)NC(=O)[C@H](CCC(=O)O)NC(=O)CNC(=O)[C@H](CCC(=O)O)NC(=O)[C@H](CC(C)C)NC(=O)[C@](C)(Cc1ccccc1)NC(=O)[C@H](CO)NC(=O)[C@](C)(CO)NC(=O)[C@@H](NC(=O)[C@H](CC(=O)O)NC(=O)[C@](C)(CO)NC(=O)[C@@H](NC(=O)[C@](C)(Cc1ccccc1)NC(=O)[C@H](CO)NC(=O)CNC(=O)[C@H](CCC(=O)O)NC(=O)C(C)(C)NC(=O)[C@@H](N)Cc1c[nH]cn1)[C@@H](C)O)C(C)C)C(=O)N[C@@H](C)C(=O)N[C@@](C)(Cc1ccccc1)C(=O)N[C@H](C(=O)N[C@H](C(=O)N[C@@](C)(CCCCN)C(=O)NCC(=O)NCC(N)=O)C(C)C)C(C)C [compound 18] | ≥ 100 | ≥ 100 | ≥ 100 | ≥ 100 | 4100 | 5800 | 4940

Now from value to compound:

Row | EC50 [1, 4] [nM] | EC50 [1, 5] [nM] | EC50 [2, 6] [nM] | EC50 [2, 7] [nM] | EC50 [3, 8] [pM] | EC50 [3, 9] [pM] | EC50 [3, 10] [pM] | SMILES
4 | ≥ 27 | ≥ 27 | ≥ 27 | ≥ 27 | 64 | 18 | 40.9 | CCCCCCCCCCCCCCCCCC(=O)N[C@@H](CCC(=O)N[C@@H](CCC(=O)NCCCC[C@H](NC(=O)[C@@H](NC(=O)[C@@H](NC(=O)[C@](C)(Cc1ccccc1)NC(=O)[C@H](C)NC(=O)[C@@H](NC(=O)[C@](C)(Cc1ccccc1)NC(=O)[C@H](CCC(=O)O)NC(=O)[C@](C)(CCCCN)NC(=O)[C@H](C)NC(=O)[C@H](C)NC(=O)[C@H](CCC(=O)O)NC(=O)CNC(=O)[C@H](CCC(=O)O)NC(=O)[C@H](CC(C)C)NC(=O)[C@](C)(Cc1ccccc1)NC(=O)[C@H](CO)NC(=O)[C@](C)(CO)NC(=O)[C@@H](NC(=O)[C@H](CC(=O)O)NC(=O)[C@H](CO)NC(=O)[C@@H](NC(=O)[C@](C)(Cc1ccccc1)NC(=O)[C@H](CO)NC(=O)CNC(=O)[C@H](CCC(=O)O)NC(=O)C(C)(C)NC(=O)[C@@H](N)Cc1c[nH]cn1)[C@@H](C)O)C(C)C)[C@@H](C)CC)C(C)C)C(C)C)C(=O)NCC(=O)NCC(N)=O)C(=O)O)C(=O)O [compound 183]
5 | ≥ 25 | ≥ 25.4 | ≥ 25 | ≥ 25.4 | ≥ 25000 | ≥ 25400 | ≥ 25400 | CC[C@H](C)[C@H](NC(=O)[C@](C)(Cc1ccccc1)NC(=O)[C@H](CCC(=O)O)NC(=O)[C@](C)(CCCCN)NC(=O)[C@H](C)NC(=O)[C@H](C)NC(=O)[C@H](CCC(=O)O)NC(=O)CNC(=O)[C@H](CCC(=O)O)NC(=O)[C@H](CC(C)C)NC(=O)[C@](C)(Cc1ccccc1)NC(=O)[C@H](CO)NC(=O)[C@](C)(CO)NC(=O)[C@@H](NC(=O)[C@H](CC(=O)O)NC(=O)[C@H](CO)NC(=O)[C@@H](NC(=O)[C@](C)(Cc1ccccc1)NC(=O)[C@H](CO)NC(=O)CNC(=O)[C@H](CCCCNC(=O)COCCOCCNC(=O)COCCOCCNC(=O)CC[C@H](NC(=O)CCCCCCCCCCCCCCCCC(=O)O)C(=O)O)NC(=O)C(C)(C)NC(=O)[C@@H](N)Cc1c[nH]cn1)[C@@H](C)O)C(C)C)C(=O)N[C@@H](C)C(=O)N[C@@](C)(Cc1ccccc1)C(=O)N[C@H](C(=O)N[C@H](C(=O)N[C@@](C)(CCCCN)C(=O)NCC(=O)NCC(N)=O)C(C)C)C(C)C [compound 126] (H-H[Aib]K([AEEA-AEEA-γGlu-C18 diacid])GS[αMeF]TSDV[αMeS]S[αMeF]LEGEAA[αMeK]E[αMeF]IA[αMeF]VV[αMeK]GG-NH2; N-terminus assumed)
6 | ≥ 26 | ≥ 26 | ≥ 26 | ≥ 26 | 16 | 13 | 14.4 | CCCCCCCCCCCC(=O)N[C@@H](CCC(=O)N[C@@H](CCC(=O)N[C@@H](CCC(=O)NCCCC[C@H](NC(=O)[C@H](C)NC(=O)[C@H](C)NC(=O)[C@H](CCC(=O)O)NC(=O)CNC(=O)[C@H](CCC(=O)O)NC(=O)[C@H](CC(C)C)NC(=O)[C@](C)(Cc1ccccc1)NC(=O)[C@H](CO)NC(=O)[C@](C)(CO)NC(=O)[C@@H](NC(=O)[C@H](CC(=O)O)NC(=O)[C@H](CO)NC(=O)[C@@H](NC(=O)[C@](C)(Cc1ccccc1)NC(=O)[C@H](CO)NC(=O)CNC(=O)[C@H](CCC(=O)O)NC(=O)C(C)(C)NC(=O)[C@@H](N)Cc1c[nH]cn1)[C@@H](C)O)C(C)C)C(=O)N[C@@H](CCC(=O)O)C(=O)N[C@@](C)(Cc1ccccc1)C(=O)N[C@H](C(=O)N[C@@H](C)C(=O)N[C@@](C)(Cc1ccccc1)C(=O)N[C@H](C(=O)N[C@H](C(=O)N[C@@](C)(CCCCN)C(=O)NCC(=O)NCC(N)=O)C(C)C)C(C)C)[C@@H](C)CC)C(=O)O)C(=O)O)C(=O)O [compound 130]
7 | ≥ 28 | ≥ 28 | ≥ 28 | ≥ 28 | 22 | 7.8 | 14.6 | CCCCCCCCCCCC(=O)N[C@@H](CCC(=O)NCCCC[C@H](NC(=O)[C@@H](NC(=O)[C@@H](NC(=O)[C@](C)(Cc1ccccc1)NC(=O)[C@H](C)NC(=O)[C@@H](NC(=O)[C@](C)(Cc1ccccc1)NC(=O)[C@H](CCC(=O)O)NC(=O)[C@](C)(CCCCN)NC(=O)[C@H](C)NC(=O)[C@H](C)NC(=O)[C@H](CCC(=O)O)NC(=O)CNC(=O)[C@H](CCC(=O)O)NC(=O)[C@H](CC(C)C)NC(=O)[C@](C)(Cc1ccccc1)NC(=O)[C@H](CO)NC(=O)[C@](C)(CO)NC(=O)[C@@H](NC(=O)[C@H](CC(=O)O)NC(=O)[C@H](CO)NC(=O)[C@@H](NC(=O)[C@](C)(Cc1ccccc1)NC(=O)[C@H](CO)NC(=O)CNC(=O)[C@H](CCC(=O)O)NC(=O)C(C)(C)NC(=O)[C@@H](N)Cc1c[nH]cn1)[C@@H](C)O)C(C)C)[C@@H](C)CC)C(C)C)C(C)C)C(=O)NCC(=O)NCC(N)=O)C(=O)O [compound 164]
